# Patent publication US10519152B2, “Compounds and their use in treating cancer” (AstraZeneca AB, priority 2017, dated 2019)
# Target: T1, recombinant human Estrogen Receptor alpha ligand binding domain, residues 307-554 (ER alpha-LBD (GST)) (Homo sapiens, UniProt P03372)
# T1 construct: made in house
# T1 sequence (P03372 307-554): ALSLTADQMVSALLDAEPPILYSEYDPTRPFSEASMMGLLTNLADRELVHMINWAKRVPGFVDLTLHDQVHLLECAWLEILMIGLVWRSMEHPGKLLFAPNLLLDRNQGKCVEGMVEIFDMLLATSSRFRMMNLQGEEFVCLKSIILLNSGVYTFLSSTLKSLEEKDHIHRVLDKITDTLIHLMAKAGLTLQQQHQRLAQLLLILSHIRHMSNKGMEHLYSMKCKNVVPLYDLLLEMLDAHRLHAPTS
# Experiment: ERα binding assay (LanthaScreen TR-FRET competition)
# Settings: TR-FRET competition with Fluormone ES2 tracer, 4 hours at room temperature; single experiment or average of two or more
row,SMILES,IC50 [nM]
1,"Cc1ncsc1-c1ccc(CNC(=O)[C@@H]2C[C@@H](O)CN2C(=O)[C@@H](NC(=O)COCCCCCCCOc2ccc([C@@H]3c4[nH]c5ccccc5c4C[C@@H](C)N3CC(F)F)nc2)C(C)(C)C)cc1 [Example 6, (2S,4R)-1-((S)-2-(2-((7-((6-((1S,3R)-2-(2,2-Difluoroethyl)-3-methyl-2,3,4,9-tetrahydro-1H-pyrido[3,4-b]indol-1-yl)pyridin-3-yl)oxy)heptyl)oxy)acetamido)-3,3-dimethylbutanoyl)-4-hydroxy-N-(4-(4-methylthiazol-5-yl)benzyl)pyrrolidine-2-carboxamide]",4.2
2,"Cc1ncsc1-c1ccc(CNC(=O)[C@@H]2C[C@@H](O)CN2C(=O)[C@@H](NC(=O)COCCCCCNCCOc2cc(F)c([C@@H]3c4[nH]c5ccccc5c4C[C@@H](C)N3CC(C)(C)F)c(F)c2)C(C)(C)C)cc1 [Example 48, (2S,4R)-1-((S)-2-(2-((5-((2-(3,5-difluoro-4-((1R,3R)-2-(2-fluoro-2-methylpropyl)-3-methyl-2,3,4,9-tetrahydro-1H-pyrido[3,4-b]indol-1-yl)phenoxy)ethyl)amino)pentyl)oxy)acetamido)-3,3-dimethylbutanoyl)-4-hydroxy-N-(4-(4-methylthiazol-5-yl)benzyl)pyrrolidine-2-carboxamide]",1
3,"Cc1ncsc1-c1ccc(CNC(=O)[C@@H]2C[C@@H](O)CN2C(=O)[C@@H](NC(=O)COCCOCCOCCOCCOCCOCC(=O)Nc2ccc([C@@H]3c4[nH]c5ccccc5c4C[C@@H](C)N3CC(C)(C)F)cc2)C(C)(C)C)cc1 [Example 54, N^1-(4-((1R,3R)-2-(2-fluoro-2-methylpropyl)-3-methyl-2,3,4,9-tetrahydro-1H-pyrido[3,4-b]indol-1-yl)phenyl)-N^18—((S)-1-((2S,4R)-4-hydroxy-2-(4-(4-methylthiazol-5-yl)benzylcarbamoyl)pyrrolidin-1-yl)-3,3-dimethyl-1-oxobutan-2-yl)-2,5,8,11,14,17-hexaoxaoctadecane-1,18-dicarboxamide, Trifluoroacetic Acid]",16
4,"Cc1ncsc1-c1ccc(CNC(=O)[C@@H]2C[C@@H](O)CN2C(=O)[C@@H](NC(=O)COCCCCOc2cc(F)c([C@@H]3c4[nH]c5ccccc5c4C[C@@H](C)N3CC(C)(C)F)c(F)c2)C(C)(C)C)cc1 [Example 14, (2S,4R)-1-((S)-2-(2-(4-(3,5-Difluoro-4-((1R,3R)-2-(2-fluoro-2-methylpropyl)-3-methyl-2,3,4,9-tetrahydro-1H-pyrido[3,4-b]indol-1-yl)phenoxy)butoxy)acetamido)-3,3-dimethylbutanoyl)-4-hydroxy-N-(4-(4-methylthiazol-5-yl)benzyl)pyrrolidine-2-carboxamide]",0.9
5,"Cc1ncsc1-c1ccc([C@H](C)NC(=O)[C@@H]2C[C@@H](O)CN2C(=O)[C@@H](NC(=O)COCCCCOCCCOc2cc(F)c([C@@H]3c4[nH]c5ccccc5c4C[C@@H](C)N3CC(C)(C)F)c(F)c2)C(C)(C)C)cc1 [Example 154, (2S,4R)-1-((S)-2-(2-(4-(3-(3,5-Difluoro-4-((1R,3R)-2-(2-fluoro-2-methylpropyl)-3-methyl-2,3,4,9-tetrahydro-1H-pyrido[3,4-b]indol-1-yl)phenoxy)propoxy)butoxy)acetamido)-3,3-dimethylbutanoyl)-4-hydroxy-N—((S)-1-(4-(4-methylthiazol-5-yl)phenyl)ethyl)pyrrolidine-2-carboxamide]",0.4
6,"Cc1ncsc1-c1ccc([C@H](C)NC(=O)[C@@H]2C[C@@H](O)CN2C(=O)[C@@H](NC(=O)COCCCOCCCOc2cc(F)c([C@@H]3c4[nH]c5ccccc5c4C[C@@H](C)N3CC(C)(C)F)c(F)c2)C(C)(C)C)cc1 [Example 152, (2S,4R)-1-((S)-2-(2-(3-(3-(3,5-Difluoro-4-((1R,3R)-2-(2-fluoro-2-methylpropyl)-3-methyl-2,3,4,9-tetrahydro-1H-pyrido[3,4-b]indol-1-yl)phenoxy)propoxy)propoxy)acetamido)-3,3-dimethylbutanoyl)-4-hydroxy-N—((S)-1-(4-(4-methylthiazol-5-yl)phenyl)ethyl)pyrrolidine-2-carboxamide]",0.5
7,"Cc1ncsc1-c1ccc([C@H](C)NC(=O)[C@@H]2C[C@@H](O)CN2C(=O)[C@@H](NC(=O)COCCCOCCCCCOc2cc(F)c([C@@H]3c4[nH]c5ccccc5c4C[C@@H](C)N3CC(C)(C)F)c(F)c2)C(C)(C)C)cc1 [Example 137, (2S,4R)-1-((S)-2-(2-(3-((5-(3,5-Difluoro-4-((R,3R)-2-(2-fluoro-2-methylpropyl)-3-methyl-2,3,4,9-tetrahydro-1H-pyrido[3,4-b]indol-1-yl)phenoxy)pentyl)oxy)propoxy)acetamido)-3,3-dimethylbutanoyl)-4-hydroxy-N—((S)-1-(4-(4-methylthiazol-5-yl)phenyl)ethyl)pyrrolidine-2-carboxamide]",0.8
8,"Cc1ncsc1-c1ccc(CNC(=O)[C@@H]2C[C@@H](O)CN2C(=O)[C@@H](NC(=O)CCCCCCCCCOc2cc(F)c([C@@H]3c4[nH]c5ccccc5c4C[C@@H](C)N3CC(C)(C)F)c(F)c2)C(C)(C)C)cc1 [Example 11, (2S,4R)-1-((S)-2-(10-(3,5-Difluoro-4-((1R,3R)-2-(2-fluoro-2-methylpropyl)-3-methyl-2,3,4,9-tetrahydro-1H-pyrido[3,4-b]indol-1-yl)phenoxy)decanamido)-3,3-dimethylbutanoyl)-4-hydroxy-N-(4-(4-methylthiazol-5-yl)benzyl)pyrrolidine-2-carboxamide]",1.5
9,"Cc1ncsc1-c1ccc(CNC(=O)[C@@H]2C[C@@H](O)CN2C(=O)[C@@H](NC(=O)COCCCCCOc2ccc([C@@H]3c4[nH]c5ccccc5c4C[C@@H](C)N3CC(F)F)nc2)C(C)(C)C)cc1 [Example 17, (2S,4R)-1-((S)-2-(2-((5-((6-((1S,3R)-2-(2,2-Difluoroethyl)-3-methyl-2,3,4,9-tetrahydro-1H-pyrido[3,4-b]indol-1-yl)pyridin-3-yl)oxy)pentyl)oxy)acetamido)-3,3-dimethylbutanoyl)-4-hydroxy-N-(4-(4-methylthiazol-5-yl)benzyl)pyrrolidine-2-carboxamide]",5.5
10,"Cc1ncsc1-c1ccc(CNC(=O)[C@@H]2C[C@@H](O)CN2C(=O)[C@@H](NC(=O)COCCCCCCOc2ccc([C@@H]3c4[nH]c5ccccc5c4C[C@@H](C)N3CC(F)F)nc2)C(C)(C)C)cc1 [Example 8, (2S,4R)-1-((S)-2-(2-((6-((6-((1S,3R)-2-(2,2-Difluoroethyl)-3-methyl-2,3,4,9-tetrahydro-1H-pyrido[3,4-b]indol-1-yl)pyridin-3-yl)oxy)hexyl)oxy)acetamido)-3,3-dimethylbutanoyl)-4-hydroxy-N-(4-(4-methylthiazol-5-yl)benzyl)pyrrolidine-2-carboxamide]",6.8
11,Cc1ncsc1-c1ccc(CNC(=O)[C@@H]2C[C@@H](O)CN2C(=O)[C@@H](NC(=O)CNCc2ccc(COc3cc(F)c([C@@H]4c5[nH]c6ccccc6c5C[C@@H](C)N4CC(C)(C)F)c(F)c3)nc2)C(C)(C)C)cc1 [Example 146],0.8
12,"Cc1ncsc1-c1ccc([C@H](C)NC(=O)[C@@H]2C[C@@H](O)CN2C(=O)[C@@H](NC(=O)COCCOCCCCCOc2cc(F)c([C@@H]3c4[nH]c5ccccc5c4C[C@@H](C)N3CC(C)(C)F)c(F)c2)C(C)(C)C)cc1 [Example 156, (2S,4R)-1-((S)-2-(2-(2-((5-(3,5-Difluoro-4-((1R,3R)-2-(2-fluoro-2-methylpropyl)-3-methyl-2,3,4,9-tetrahydro-1H-pyrido[3,4-b]indol-1-yl)phenoxy)pentyl)oxy)ethoxy)acetamido)-3,3-dimethylbutanoyl)-4-hydroxy-N—((S)-1-(4-(4-methylthiazol-5-yl)phenyl)ethyl)pyrrolidine-2-carboxamide]",0.6
13,"Cc1ncsc1-c1ccc(CNC(=O)[C@@H]2C[C@@H](O)CN2C(=O)[C@@H](NC(=O)COCCOCCC(F)(F)CCOc2cc(F)c([C@@H]3c4[nH]c5ccccc5c4C[C@@H](C)N3CC(C)(C)F)c(F)c2)C(C)(C)C)cc1 [Example 127, (2S,4R)-1-((S)-2-(2-(2-((5-(3,5-Difluoro-4-((R,3R)-2-(2-fluoro-2-methylpropyl)-3-methyl-2,3,4,9-tetrahydro-1H-pyrido[3,4-b]indol-1-yl)phenoxy)-3,3-difluoropentyl)oxy)ethoxy)acetamido)-3,3-dimethylbutanoyl)-4-hydroxy-N-(4-(4-methylthiazol-5-yl)benzyl)pyrrolidine-2-carboxamide]",0.5
14,"Cc1ncsc1-c1ccc(CNC(=O)[C@@H]2C[C@@H](O)CN2C(=O)[C@@H](NC(=O)COCCOCCOCCOCCOc2cc(F)c([C@@H]3c4[nH]c5ccccc5c4C[C@@H](C)N3CC(C)(C)F)c(F)c2)C(C)(C)C)cc1 [Example 37, (2S,4R)-1-((S)-2-(tert-Butyl)-17-(3,5-difluoro-4-((1R,3R)-2-(2-fluoro-2-methylpropyl)-3-methyl-2,3,4,9-tetrahydro-1H-pyrido[3,4-b]indol-1-yl)phenoxy)-4-oxo-6,9,12,15-tetraoxa-3-azaheptadecanoyl)-4-hydroxy-N-(4-(4-methylthiazol-5-yl)benzyl)pyrrolidine-2-carboxamide]",6.4
15,"Cc1ncsc1-c1ccc(CNC(=O)[C@@H]2C[C@@H](O)CN2C(=O)[C@@H](NC(=O)COCC/C=C/CCOc2cc(F)c([C@@H]3c4[nH]c5ccccc5c4C[C@@H](C)N3CC(C)(C)F)c(F)c2)C(C)(C)C)cc1 [Example 22, (2S,4R)-1-((S)-2-(2-(((E)-6-(3,5-Difluoro-4-((1R,3R)-2-(2-fluoro-2-methylpropyl)-3-methyl-2,3,4,9-tetrahydro-1H-pyrido[3,4-b]indol-1-yl)phenoxy)hex-3-en-1-yl)oxy)acetamido)-3,3-dimethylbutanoyl)-4-hydroxy-N-(4-(4-methylthiazol-5-yl)benzyl)pyrrolidine-2-carboxamide]",0.7
